# Laboratory results from the supplement of paper PMC11061612.
# What was measured:
# Assay in all cases: combination Emax (second highest fraction inhibited in the dose matrix, 72 h); higher = more inhibition; extreme values may be limits of the assay
# [1] = system: OVCA420 (Ovarian Carcinoma)
# Summary of the method: (§1)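 After 24 hours at 37°C and 5% CO2 in 1536-well plates, cells in DMEM/F12 or RPMI plus 10% FBS received two-drug dose matrices for 72 hours. Viability came from CellTiter-Glo 2.0 luminescence and was scaled as inhibition, anchored at 0 by vehicle wells and at 1 by blank wells. Combination Emax is taken as the second-highest inhibition in the matrix, and Bliss excess as the observed combination effect less EA + EB − EA·EB, with EA and EB the single-agent effects.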
# [2] = system: HO-1-N-1 (Oral Cavity Carcinoma)
# Summary of the method: as §1
# NB10 (Neuroblastoma) = system: NB10 (Neuroblastoma)
# Summary of the method: as §1
# T98G (Glioblastoma) = system: T98G (Glioblastoma)
# Summary of the method: as §1
# 42-MG-BA (Glioblastoma) = system: 42-MG-BA (Glioblastoma)
# Summary of the method: as §1
# [3] = system: SNU-5 (Gastric Carcinoma)
# Summary of the method: as §1
# NOS-1 (Osteosarcoma) = system: NOS-1 (Osteosarcoma)
# Summary of the method: as §1
# [4] = system: LU-135 (Small Cell Lung Carcinoma)
# Summary of the method: as §1
# [5] = system: KYSE-520 (Esophageal Squamous Cell Carcinoma)
# Summary of the method: as §1
# [6] = system: TE-15 (Esophageal Squamous Cell Carcinoma)
# Summary of the method: as §1
# [7] = system: Ramos-2G6-4C10 (Burkitt's Lymphoma)
# Summary of the method: as §1
# [8] = system: TE-9 (Esophageal Squamous Cell Carcinoma)
# Summary of the method: as §1
# [9] = system: MDA-MB-361 (Breast Carcinoma)
# Summary of the method: as §1
# [10] = system: DEL (T-Cell Non-Hodgkin's Lymphoma)
# Summary of the method: as §1
# [11] = system: RO82-W-1 (Thyroid Gland Carcinoma)
# Summary of the method: as §1
# HOS (Osteosarcoma) = system: HOS (Osteosarcoma)
# Summary of the method: as §1
# AGS (Gastric Carcinoma) = system: AGS (Gastric Carcinoma)
# Summary of the method: as §1
# [12] = system: MFE-296 (Endometrial Carcinoma)
# Summary of the method: as §1
# [13] = system: KURAMOCHI (Ovarian Carcinoma)
# Summary of the method: as §1
# [14] = system: TCCSUP (Bladder Carcinoma)
# Summary of the method: as §1
SMILES,combination Emax [1],combination Emax [2],combination Emax (NB10 (Neuroblastoma)),combination Emax (T98G (Glioblastoma)),combination Emax (42-MG-BA (Glioblastoma)),combination Emax [3],combination Emax (NOS-1 (Osteosarcoma)),combination Emax [4],combination Emax [5],combination Emax [6],combination Emax [7],combination Emax [8],combination Emax [9],combination Emax [10],combination Emax [11],combination Emax (HOS (Osteosarcoma)),combination Emax (AGS (Gastric Carcinoma)),combination Emax [12],combination Emax [13],combination Emax [14]
"Cc1c2c(nn1C)CSCc1cc(n(C)n1)CSc1cc(c3ccccc3c1)OCCCc1c(C(=O)O)n(C)c3c-2c(Cl)ccc13 [AZD5991] + Cn1cnc2c(F)c(Nc3ccc(Br)cc3Cl)c(C(=O)NOCCO)cc21 [Selumetinib] (first compound max 1 µM, 7x7, partner max 3 µM)",0.498,0.919,0.396,0.249,0.988,0.495,0.895,0.22,0.355,0.317,0.998,0.162,0.816,1,0.311,0.229,0.964,0.256,0.485,0.227
"Cc1cc2ncnn2cc1Nc1ncc2c(n1)n(C1CCOCC1)c(=O)n2C [AZD7648] + C=CCn1c(=O)c2cnc(Nc3ccc(N4CCN(C)CC4)cc3)nc2n1-c1cccc(C(C)(C)O)n1 [AZD1775] (first compound max 10 µM, partner max 1 µM)",0.418,0.532,0.594,0.711,0.439,0.558,0.432,0.56,0.4,0.565,0.998,0.275,0.824,1,0.46,0.369,0.736,0.295,0.664,0.375
"Cc1cc2ncnn2cc1Nc1ncc2c(n1)n(C1CCOCC1)c(=O)n2C [AZD7648] + CCN(CCO)CCCOc1ccc2c(Nc3cc(CC(=O)Nc4cccc(F)c4)[nH]n3)ncnc2c1 [AZD2811] (first compound max 10 µM, 7x7, partner max 1 µM)",0.232,0.826,0.335,0.467,0.472,0.354,0.232,0.893,0.337,0.283,0.789,0.234,0.61,0.727,0.358,0.273,0.529,0.147,0.238,0.387
"Cc1cc2ncnn2cc1Nc1ncc2c(n1)n(C1CCOCC1)c(=O)n2C [AZD7648] + CN(C)CCCOc1ccc(-c2ccc3ncc4c(c3c2)n(C2CCOCC2)c(=O)n4C)cn1 [AZD0156] (first compound max 10 µM, 7x7, partner max 1 µM)",0.262,0.3,0.307,0.266,0.398,0.376,0.225,0.172,0.305,0.236,0.292,0.183,0.565,0.412,0.394,0.273,0.397,0.147,0.192,0.197
"Cc1cc2ncnn2cc1Nc1ncc2c(n1)n(C1CCOCC1)c(=O)n2C [AZD7648] + C[C@@H]1COCCN1C2=NC(=NC(=C2)C3(CC3)[S@](=N)(=O)C)C4=C5C=CNC5=NC=C4 [AZD6738] (first compound max 10 µM, 7x7, partner max 10 µM)",0.509,0.706,0.801,0.859,0.692,0.931,0.351,0.552,0.538,0.713,0.944,0.286,0.884,0.977,0.478,0.691,0.682,0.33,0.567,0.569
"Cc1cc2ncnn2cc1Nc1ncc2c(n1)n(C1CCOCC1)c(=O)n2C [AZD7648] + O=C(c1cc(Cc2n[nH]c(=O)c3ccccc23)ccc1F)N1CCN(C(=O)C2CC2)CC1 [Olaparib] (first compound max 10 µM, 7x7, partner max 10 µM)",0.0465,0.324,0.426,0.203,0.464,0.374,0.0915,0.394,0.234,0.182,0.169,0.119,0.406,0.693,0.251,0.195,0.204,0.0811,0.16,0.134
"NC1(C(=O)N[C@@H](CCO)c2ccc(Cl)cc2)CCN(c2ncnc3[nH]ccc23)CC1 [Capivasertib] + CC(=O)c1c(C)c2cnc(Nc3ccc(N4CCNCC4)cn3)nc2n(C2CCCC2)c1=O [Palbociclib] (first compound max 10 µM, 7x7, partner max 10 µM)",0.412,0.635,0.369,0.6,0.639,0.379,0.607,0.452,0.638,0.568,0.42,0.227,0.546,0.892,0.218,0.504,0.697,0.493,0.29,0.317
